{
  "source": "patent US6465521B1",
  "about": "“Composition for desorbing bacteria” (Ramot University Authority for Applied Research & …, priority 1988, dated 2002)",
  "type_in_all_cases": "cell-based",
  "key": {"[1]": {"test_system": "Acinetobacter calcoaceticus RAG-1 (ATCC 31012)", "assay": "Adhesion of RAG-1 to various oils (percent drop in turbidity after vortexing with oil)", "conditions": "for Percent adhesion to: mineral oil 50 / Percent adhesion to: n-nexadecane / Percent adhesion to: soybean oil: 0.16 ml of 0.5% detergent added, vortexed 2 min", "method": "In one experiment Acinetobacter calcoaceticus RAG-1 (ATCC 31012) cells were grown overnight with vigorous shaking at 30 C in brain heart infusion broth. The cells were harvested by centrifugation and washed twice in 0.2% saline. The cells were then suspended in 0.2% saline to a corrected optical density of about 15 at 400 nm (1 cm light path). To 1.2 ml of suspended bacteria in 4 ml square disposable polystyrene cuvettes were added the following: 0.16 ml of 0.5% detergent in water (or water for control) and 0.24 ml water. Following brief mixing, 0.2 ml of oil was added (vs. controls with no oil added) and the mixtures vortexed vigorously for 2 min. Following about thirty minutes, the corrected turbidity of the lower aqueous phase was measured at 400 nm. Adhesion is calculated as the percent drop in turbidity following the mixing procedure.\nThe ability of another cationic surface-active agent, chlorhexidine digluconate, to enhance microbial adhesions to oil droplets is shown in the following experiment. Actnetobacter calcoaceticus RAG-1 (ATCC 31012) cells were grown overnight with vigorous shaking at 30 C in brain heart infusion broth. The cells were harvested, washed by centrifugation, and suspended in 0.2% saline to a corrected optidal density of ca. 18 at […] (1 cm light path). To 1.2 ml of suspended bacteria in 4 ml square disposable polystyrene cuvettes were added the following: 0.16 ml of 0.5% chlorhexidine digluconate in water (or water for control) and 0.24 ml water. To each cuvette 0.2 ml of oil was added (vs. control with no oil added) and the mixtures vortexed vigorously for 2 min. After about thirty minutes, the turbidity of the lower aqueous phase was measured at 400 nm and corrected for non-linearity by a standard curve. Adhesion is calculated as the percent drop in corrected turbidity following the mixing procedure."}, "Escherichia coli CSH 57": {"test_system": "Escherichia coli CSH 57", "assay": "Adhesion of Escherichia coli CSH 57 to hexadecane", "conditions": "0 without"}, "Candida albicans": {"test_system": "Candida albicans", "assay": "Adhesion of the yeast Candida albicans to hexadecane", "conditions": "for adhesion of C. albicans to hexadecane: 0.16% cetyl pyridinium chloride; for adhesion of the yeast Candida albicans: 20 without"}, "[2]": {"test_system": "Acinetobacter calcoaceticus MR-481", "assay": "Adhesion of Acinetobacter calcoaceticus MR-481 to oil droplets", "conditions": "0 without"}, "[3]": {"conditions": "0.16 ml of 0.5% chlorhexidine digluconate added, 0.2 ml oil"}},
  "data": [
    {"molecule": "CCCCCCCCCCCCCCCC[n+]1ccccc1", "note": "[Cetylpyridinium chloride, cetylpyridinium chloride]", "values": [
      {"measurement": "Percent adhesion to: mineral oil 50", "setting": "[1]; 0.2 ml oil", "value": 80, "unit": "%"},
      {"measurement": "Percent adhesion to: n-nexadecane", "setting": "[1]; 0.2 ml oil", "value": 83, "unit": "%"},
      {"measurement": "Percent adhesion to: soybean oil", "setting": "[1]; 0.2 ml oil", "value": 47, "unit": "%"},
      {"measurement": "adhesion of Escherichia coli CSH 57 to hexadecane", "setting": "Escherichia coli CSH 57; 0.08% cetylpyridinium chloride present", "value": 98, "unit": "%"},
      {"measurement": "adhesion of C. albicans to hexadecane", "setting": "Candida albicans; 0.8% NaCl present", "value": 18, "unit": "%"},
      {"measurement": "adhesion of C. albicans to hexadecane", "setting": "Candida albicans; no NaCl", "value": 100, "unit": "%"},
      {"measurement": "Adhesion of Acinetobacter calcoaceticus MR-481", "setting": "[2]; 0.18% of cetylpyridinium chloride", "value": 97, "unit": "%"}
    ]},
    {"molecule": "CCCCCCCCCCCCOS(=O)(=O)[O-].[Na+]", "note": "[Sodium dodecyl sulphate]", "values": [
      {"measurement": "Percent adhesion to: mineral oil 50", "setting": "[1]; 0.2 ml oil", "value": 0, "unit": "%"},
      {"measurement": "Percent adhesion to: n-nexadecane", "setting": "[1]; 0.2 ml oil", "value": 0, "unit": "%"},
      {"measurement": "Percent adhesion to: soybean oil", "setting": "[1]; 0.2 ml oil", "value": 0, "unit": "%"},
      {"measurement": "adhesion to all three test oils", "setting": "[1]; added at the same concentration as the cetylpyridinium chloride (w/v)", "value": 0, "unit": "%"}
    ]},
    {"molecule": "N=C(NCCCCCCNC(=N)NC(=N)Nc1ccc(Cl)cc1)NC(=N)Nc1ccc(Cl)cc1.O=C(O)[C@H](O)[C@@H](O)[C@H](O)[C@H](O)CO.O=C(O)[C@H](O)[C@@H](O)[C@H](O)[C@H](O)CO", "note": "[Chlorhexidine digluconate, chlorhexidine digluconate]", "values": [
      {"measurement": "Percent adhesion to Commerical soybean oil", "setting": "[1]; [3]", "value": 89, "unit": "%"},
      {"measurement": "Percent adhesion to Sigma soybean oil", "setting": "[1]; [3]", "value": 90, "unit": "%"},
      {"measurement": "Percent adhesion to isohexadecane", "setting": "[1]; [3]", "value": 94, "unit": "%"},
      {"measurement": "Percent adhesion to n-hexadecane", "setting": "[1]; [3]", "value": 95, "unit": "%"},
      {"measurement": "adhesion of Escherichia coli CSH 57 to hexadecane", "setting": "Escherichia coli CSH 57; 0.1% chlorhexidine digluconate present", "value": 98, "unit": "%"},
      {"measurement": "adhesion of the yeast Candida albicans", "setting": "Candida albicans; 0.16% chlorhexidine digluconate", "value": 100, "unit": "%"}
    ]},
    {"molecule": "chitosan", "values": [
      {"measurement": "adhesion of Escherichia coli CSH 57 to hexadecane", "setting": "Escherichia coli CSH 57; 0.015% chitosan present", "value": 97, "unit": "%"},
      {"measurement": "adhesion of the yeast Candida albicans", "setting": "Candida albicans; 0.025% chitosan", "value": 95, "unit": "%"},
      {"measurement": "Adhesion of Acinetobacter calcoaceticus MR-481", "setting": "[2]; 0.019% of chitosan", "value": 99, "unit": "%"}
    ]}
  ]
}
